In patent US20250352596A1, “DIETARY SUPPLEMENTS FOR MOOD SUPPORT” (Melaleuca, Inc., priority 2024, published 2025):
One block for each compound: values may come before it.

What was measured:
Assay type in all cases: biochemical
[1] = molecular target: GSK3β (Homo sapiens, UniProt P49841); assay: kinase inhibition, IC50 of Blend A, ingredients and control; conditions: follow up investigation; for inositol the upper limit of use (1 mM) was used in the calculation
[2] = molecular target: T1, GRK2 (Homo sapiens, UniProt P25098); assay: as above
T1 sequence (P25098 1-689): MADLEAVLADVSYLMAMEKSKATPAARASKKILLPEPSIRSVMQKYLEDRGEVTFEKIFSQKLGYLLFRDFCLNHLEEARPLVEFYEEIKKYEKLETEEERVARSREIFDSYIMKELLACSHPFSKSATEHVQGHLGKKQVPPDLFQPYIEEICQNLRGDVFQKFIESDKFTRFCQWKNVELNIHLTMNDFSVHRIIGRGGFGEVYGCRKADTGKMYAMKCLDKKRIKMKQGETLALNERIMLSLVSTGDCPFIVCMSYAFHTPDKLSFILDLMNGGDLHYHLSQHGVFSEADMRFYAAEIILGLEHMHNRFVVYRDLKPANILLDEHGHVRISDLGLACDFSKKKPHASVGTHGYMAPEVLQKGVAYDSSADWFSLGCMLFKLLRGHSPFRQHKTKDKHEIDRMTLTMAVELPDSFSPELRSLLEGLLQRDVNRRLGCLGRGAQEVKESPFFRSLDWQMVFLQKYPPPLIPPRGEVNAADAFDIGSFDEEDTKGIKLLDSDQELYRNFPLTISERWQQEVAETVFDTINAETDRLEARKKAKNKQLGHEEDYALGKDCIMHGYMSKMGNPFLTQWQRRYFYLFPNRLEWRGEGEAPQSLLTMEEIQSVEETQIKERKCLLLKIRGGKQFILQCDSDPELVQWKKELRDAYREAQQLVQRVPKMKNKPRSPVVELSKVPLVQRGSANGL

[3] = molecular target: GSK3α (Homo sapiens, UniProt P49840); assay: as above; conditions: follow up investigation; for inositol the upper limit of use (1 mM) was used in the calculation
Chain of GSK3α (P49840 whole entry, species assumed): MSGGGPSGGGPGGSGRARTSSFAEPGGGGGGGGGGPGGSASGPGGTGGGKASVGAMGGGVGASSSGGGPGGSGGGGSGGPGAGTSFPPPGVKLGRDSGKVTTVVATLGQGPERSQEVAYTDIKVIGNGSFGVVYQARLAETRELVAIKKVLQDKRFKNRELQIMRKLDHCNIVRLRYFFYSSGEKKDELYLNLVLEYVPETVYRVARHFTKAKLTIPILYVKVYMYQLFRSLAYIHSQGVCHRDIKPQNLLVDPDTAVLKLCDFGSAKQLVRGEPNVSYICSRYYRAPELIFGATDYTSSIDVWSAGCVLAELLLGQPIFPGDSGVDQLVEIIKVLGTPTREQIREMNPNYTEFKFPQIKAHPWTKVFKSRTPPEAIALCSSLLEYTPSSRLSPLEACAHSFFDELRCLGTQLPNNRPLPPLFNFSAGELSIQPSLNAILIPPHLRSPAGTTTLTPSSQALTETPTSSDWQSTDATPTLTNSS

[4] = molecular target: ERK1 (Homo sapiens, UniProt P27361); assay: kinase inhibition screen, IC50 of Blend A vs control compound; conditions: initial investigation, Table 17; Blend A head reads IC50* (asterisk unexplained)
Chain of ERK1 (P27361 whole entry, species assumed): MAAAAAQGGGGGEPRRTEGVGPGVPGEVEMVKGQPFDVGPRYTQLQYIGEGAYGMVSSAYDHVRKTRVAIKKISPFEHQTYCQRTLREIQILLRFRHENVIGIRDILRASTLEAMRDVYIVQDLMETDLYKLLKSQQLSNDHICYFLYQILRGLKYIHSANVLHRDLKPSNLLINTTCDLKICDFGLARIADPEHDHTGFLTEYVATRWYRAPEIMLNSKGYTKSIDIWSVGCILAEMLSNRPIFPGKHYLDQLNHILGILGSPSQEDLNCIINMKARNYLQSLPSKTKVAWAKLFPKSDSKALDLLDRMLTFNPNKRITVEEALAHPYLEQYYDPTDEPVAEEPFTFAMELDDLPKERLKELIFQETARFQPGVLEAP
Excerpt: The cellular mechanism of action of known pharmaceutical compounds targeting mental health require the inhibition of individual enzymes. For example, one of the most well-known pharmaceuticals utilized in the mental health space, lithium, can trace its efficacy in part to the inhibition of an enzyme called glycogen synthase kinase 3 (GSK3). A technique similar to one used in the pharmaceutical industry was used to determine study a mood support composition. See, e.g., Duong-Ly, K. C. & Peterson, J. R. Curr. Protoc. Pharmacol. Chapter 2, Unit2.9 (2013); Ma, H. et al. Expert Opin. Drug Discov.
Within the body, protein kinases are responsible for carrying out cellular and intracellular actions, such as cell-to-cell signaling, neurotransmitter regulation, and hormone release. Several protein kinases are known to influence mood, and many are targets of therapeutic drugs. As a natural alternative to pharmaceuticals, Blend A was screened for efficacy of inhibiting 18 common, mood-related drug targets, including 17 kinases and 1 enzyme.

Chain of GSK3β (P49841 whole entry, species assumed): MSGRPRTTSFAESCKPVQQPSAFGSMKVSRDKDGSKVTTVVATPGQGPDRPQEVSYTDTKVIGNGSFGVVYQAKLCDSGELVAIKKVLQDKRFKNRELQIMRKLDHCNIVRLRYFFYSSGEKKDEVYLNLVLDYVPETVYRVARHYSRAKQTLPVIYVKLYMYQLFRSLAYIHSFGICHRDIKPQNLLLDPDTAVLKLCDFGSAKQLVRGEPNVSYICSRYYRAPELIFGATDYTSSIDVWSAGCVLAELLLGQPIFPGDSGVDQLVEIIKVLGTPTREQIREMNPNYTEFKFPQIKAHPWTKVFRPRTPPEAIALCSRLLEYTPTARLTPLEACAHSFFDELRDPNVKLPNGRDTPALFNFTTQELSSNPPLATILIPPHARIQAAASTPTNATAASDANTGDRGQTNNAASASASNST

efficacy for inhibiting the target, in words [1]: did not demonstrate efficacy
efficacy for inhibiting the target, in words ([2]; follow up investigation, for inositol the upper limit of use (1 mM) was used in the calculation): did not demonstrate efficacy
efficacy for inhibiting the target, in words [3]: did not demonstrate efficacy
Compound: O[C@H]1[C@H](O)[C@@H](O)[C@H](O)[C@@H](O)[C@H]1O [Inositol, inositol]

Compound: CN[C@@H]1C[C@H]2O[C@@](C)([C@@H]1OC)n1c3ccccc3c3c4c(c5c6ccccc6n2c5c31)C(=O)NC4 [STAUROSPORINE, staurosporine, reference compound]
Reciprocal Sum ([2]; Table 19, sum of the two analyses, each 50% weight): 1.60E+06

IC50 [4]: 5.57 nM
Compound: O=C(Nc1ccc2[nH]nc(-c3ccncc3)c2c1)[C@@H]1CCN(CC(=O)N2CCN(c3ccc(-c4ncccn4)cc3)CC2)C1 [SCH772984]
